Several values for one entry are separate records, joined by “and”; a condition that tells them apart may be missing. Equal entries are not always repeated.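 These data come from cells grown in 96-well plates and exposed to compound for 48 hours at five concentrations. Abbreviation: GI50, concentration required for 50% inhibition of growth. TGI: concentration producing complete growth inhibition.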
Legend:
Assay in all cases: NCI-60 cell line screen, 48 h
HOP-62 NSCLC = test system: HOP-62 NSCLC
MALME-3M melanoma = test system: MALME-3M melanoma
EKVX NSCLC = test system: EKVX NSCLC
PC-3 prostate = test system: PC-3 prostate
BT-549 breast = test system: BT-549 breast
IGROV1 ovarian = test system: IGROV1 ovarian
NCI/ADR-RES ovarian = test system: NCI/ADR-RES ovarian
K-562 leukemia = test system: K-562 leukemia
RPMI-8226 leukemia = test system: RPMI-8226 leukemia
NCI-H522 lung = test system: NCI-H522 lung

| Structure (SMILES) | GI50 (HOP-62 NSCLC) | TGI (HOP-62 NSCLC) | GI50 (MALME-3M melanoma) | TGI (MALME-3M melanoma) | GI50 (EKVX NSCLC) | TGI (EKVX NSCLC) | GI50 (PC-3 prostate) | TGI (PC-3 prostate) | GI50 (BT-549 breast) | TGI (BT-549 breast) | GI50 (IGROV1 ovarian) | TGI (IGROV1 ovarian) | GI50 (NCI/ADR-RES ovarian) | TGI (NCI/ADR-RES ovarian) [µM] | GI50 (K-562 leukemia) | TGI (K-562 leukemia) [µM] | GI50 (RPMI-8226 leukemia) | TGI (RPMI-8226 leukemia) [µM] | GI50 (NCI-H522 lung) | TGI (NCI-H522 lung) |
| --- | --- | --- | --- | --- | --- | --- | --- | --- | --- | --- | --- | --- | --- | --- | --- | --- | --- | --- | --- | --- |
| O=C1c2c[n+](Cc3ccccc3)ccc2-c2nc3ccccc3c3ccnc1c23 | 0.0569 µM | 0.817 µM | 0.499 µM | 1.02 µM | 1.28 µM | 4.79 µM | 0.826 µM | 3.92 µM | 1.15 µM | 4.85 µM | 0.827 µM | 4.04 µM | 7.3 µM | 33.3 | 0.733 µM | 7.83 | 1.06 µM | 6.76 | 0.518 µM | 1.65 µM |
| COc1cc2c(cc1OCCCN1CCN(CCCOc3cc4c(cc3OC)C(=O)N3C[C@H](F)C[C@H]3C=N4)CC1)N=C[C@@H]1C[C@@H](F)CN1C2=O | 0.013 µM | 0.0418 µM | 0.0334 µM | 0.154 µM | 0.273 µM | 16.3 µM | 0.0546 µM | – | 0.113 µM | 0.464 µM | 0.0696 µM | 1.88 µM | 9.18 µM | 47.3 | 0.0269 µM | 3.66 | 0.0226 µM | 1.04 | < 0.041 µM | 1.16 µM |
| CCOC(=O)c1ccc(N[C@@H]2c3cc4c(cc3C(c3cc(OC)c(O)c(OC)c3)[C@H]3C(=O)OCC32)OCO4)cc1 (stereo partly drawn) | 0.212 µM and 0.129 µM | 0.709 µM and 0.79 µM | 0.343 µM | 2.95 µM | 0.591 µM | 9.17 µM | – | 20.6 µM | – | 4.58 µM | 0.962 µM | 10 µM | – | 6.41 | 0.662 µM and 1.44 µM | 27.2 | – | 7.08 | 0.395 µM and 1.28 µM | 4.98 µM |
| CCOC(=O)c1nc2sc(Cl)cn2c1/C=N/N=C(N)N | 19.1 µM | 40.4 µM | 17.8 µM | 37.9 µM | 26.1 µM | 61.6 µM | 24.4 µM | > 56.8 µM | 28.3 µM | > 59.6 µM | 32.7 µM | > 100 µM | 39 µM | > 83.4 | 17 µM | 53.6 | 13 µM | > 51.5 | 20.5 µM | 47.1 µM |
| O=C(Nc1ccc(Br)cc1)c1cc(Br)ccc1O | 0.791 µM and 1.73 µM | 8.75 µM and 5.31 µM | 0.284 µM and 0.48 µM | 1.57 µM and 4.2 µM | 0.788 µM and 0.75 µM | 36.6 µM and > 20.1 µM | 0.973 µM and 2.69 µM | 12.7 µM and > 29 µM | 0.327 µM and 0.724 µM | 2.12 µM and 3.03 µM | 0.346 µM and 0.749 µM | 22.8 µM and 17 µM | 0.523 µM and 1.16 µM | 8.28 | 0.437 µM and 0.419 µM | – | 0.483 µM and 0.244 µM | 0.758 | 0.263 µM and 0.854 µM | 4.81 µM and 22.2 µM |
| CCOC(=O)c1c(C)n(Cc2ccc(Cl)cc2Cl)c2c1cc(O)c1[nH]c(Cc3ccccc3)nc12 | 4.61 µM | 19.4 µM | 7.26 µM | 28.8 µM | 9.49 µM | 22.3 µM | 2.11 µM | 5.62 µM | 2.77 µM | 7.02 µM | 3.22 µM | 15.8 µM | 4.79 µM | 17.3 | 2.94 µM | 10.7 | 1.92 µM | 3.9 | 3.2 µM | 15.6 µM |
| O=C1C=CC(=O)N1c1ccc2ccccc2c1 | 16.2 µM | 31.1 µM | 2.98 µM | 8.19 µM | 17.9 µM | 39.6 µM | 18.1 µM | 37.8 µM | 14.3 µM | 27.8 µM | 16.6 µM | 52 µM | 21.5 µM | 55.7 | 3.45 µM | > 100 | 2 µM | 4.97 | 1.74 µM | 3.42 µM |
| COc1cccc2c1C(=O)c1c(O)c3c(c(O)c1C2=O)C[C@@](O)(C(=O)CO)C[C@@H]3OC1CC2C(OCN2CN2COC3C(C)OC(O[C@H]4C[C@](O)(C(=O)CO)Cc5c(O)c6c(c(O)c54)C(=O)c4c(OC)cccc4C6=O)CC32)C(C)O1 (stereo partly drawn) | 0.00609 µM | 0.103 µM | 0.0149 µM | 0.0399 µM | 0.0393 µM | > 1 µM | 0.0107 µM | 0.0896 µM | 0.024 µM | > 0.46 µM | 0.0014 µM | 0.127 µM | 0.0187 µM | 0.198 | 0.00402 µM | – | 0.0017 µM | 0.0108 | 0.00638 µM | 0.0238 µM |

Reference: PubChem BioAssay (NCI)
